In patent publication US10280149B2, “Therapeutic compounds and uses thereof” (GENENTECH, INC., priority 2015, dated 2019):

Target: Full length KDM2B (Homo sapiens (Human), UniProt Q8NHM5)
Test: KDM2B TR-FRET assay for determining inhibitor IC50
Assay type: biochemical
Settings: TR-FRET (HTRF), biotin-H3K36me2 peptide substrate, 2-OG 0.3 μM or 6 μM
Source text: KDM2B TR-FRET Assay for Determining Inhibitor IC50
The KDM2B TR-FRET Assay described above represents an additional embodiment of the invention.

Full length KDM2B, sequence (Q8NHM5 whole entry): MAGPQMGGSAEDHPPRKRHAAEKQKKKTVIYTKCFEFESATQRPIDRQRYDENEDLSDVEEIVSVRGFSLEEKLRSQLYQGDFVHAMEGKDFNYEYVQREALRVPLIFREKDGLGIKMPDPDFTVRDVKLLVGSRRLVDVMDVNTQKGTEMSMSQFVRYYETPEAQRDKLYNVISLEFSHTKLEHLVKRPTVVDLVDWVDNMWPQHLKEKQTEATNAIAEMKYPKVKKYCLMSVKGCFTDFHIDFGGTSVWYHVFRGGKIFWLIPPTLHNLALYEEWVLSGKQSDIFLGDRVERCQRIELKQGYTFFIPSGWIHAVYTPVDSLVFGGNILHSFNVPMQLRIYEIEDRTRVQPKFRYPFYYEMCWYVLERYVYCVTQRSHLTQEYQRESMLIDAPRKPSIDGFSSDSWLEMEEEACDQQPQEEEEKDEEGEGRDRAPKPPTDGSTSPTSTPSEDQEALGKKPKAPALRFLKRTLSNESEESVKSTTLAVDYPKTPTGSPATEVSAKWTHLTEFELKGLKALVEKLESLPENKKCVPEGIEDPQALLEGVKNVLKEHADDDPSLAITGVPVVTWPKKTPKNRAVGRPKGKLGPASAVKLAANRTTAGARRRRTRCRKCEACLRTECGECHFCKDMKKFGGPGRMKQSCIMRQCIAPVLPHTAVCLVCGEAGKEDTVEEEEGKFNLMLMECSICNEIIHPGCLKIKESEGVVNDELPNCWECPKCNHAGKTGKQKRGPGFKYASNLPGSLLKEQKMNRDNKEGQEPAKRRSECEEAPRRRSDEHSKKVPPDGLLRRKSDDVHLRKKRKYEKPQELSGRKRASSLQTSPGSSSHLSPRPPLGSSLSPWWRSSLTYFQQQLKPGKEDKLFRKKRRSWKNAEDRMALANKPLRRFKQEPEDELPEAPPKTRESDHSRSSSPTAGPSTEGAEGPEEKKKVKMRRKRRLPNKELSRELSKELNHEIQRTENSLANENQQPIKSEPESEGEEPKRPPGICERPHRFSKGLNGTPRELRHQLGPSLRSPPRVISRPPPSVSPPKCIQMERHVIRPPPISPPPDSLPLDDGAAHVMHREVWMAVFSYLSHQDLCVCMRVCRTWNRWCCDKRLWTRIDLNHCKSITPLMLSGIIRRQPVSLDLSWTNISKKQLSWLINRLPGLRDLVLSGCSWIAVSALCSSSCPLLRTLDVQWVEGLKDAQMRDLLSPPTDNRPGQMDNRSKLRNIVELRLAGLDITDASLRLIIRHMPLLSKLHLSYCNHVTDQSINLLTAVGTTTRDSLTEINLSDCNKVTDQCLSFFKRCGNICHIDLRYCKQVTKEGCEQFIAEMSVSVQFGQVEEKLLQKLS

`O=C(c1cccc(Cl)c1)[C@H]1CCCN(CC2CC2)C1` (stereo in doubt) [Example 118b, (3-chlorophenyl)(1-(cyclopropylmethyl)piperidin-3-yl)methanone] showed an IC50 of 0.661 µM.

`COc1ccc2cc(C(=O)[C@@]3(F)CCCN(CC4CC4)C3)ccc2c1` (stereo in doubt) [Example 157] showed an IC50 of 6.1 µM.

In the case of `COc1ccc2cc(C(=O)[C@@]3(O)CCCN(CC4CC4)C3)ccc2c1` (stereo in doubt) [Example 158a, (1-(cyclopropylmethyl)-3-hydroxypiperidin-3-yl)(6-methoxynaphthalen-2-yl)methanone], the IC50 is reported as 1.9 µM.

For `COc1ccc2cc(C(=O)[C@]3(O)CCCN(CC4CC4)C3)ccc2c1` (stereo in doubt) [Example 158b, (1-(cyclopropylmethyl)-3-hydroxypiperidin-3-yl)(6-methoxynaphthalen-2-yl)methanone], the IC50 was 11.5 µM.

`C[C@H]1CCN(CC2CC2)C[C@@H]1C(=O)c1ccc2cc(C#N)ccc2c1` (stereo in doubt) [Example 160a, 6-(1-(cyclopropylmethyl)-4-methylpiperidine-3-carbonyl)-2-naphthonitrile] gave an IC50 of 1.7 µM.

Molecule `C[C@@H]1CCN(CC2CC2)C[C@H]1C(=O)c1ccc2cc(C#N)ccc2c1` (stereo in doubt) [Example 160b, 6-(1-(cyclopropylmethyl)-4-methylpiperidine-3-carbonyl)-2-naphthonitrile] has an IC50 of 0.113 µM.

In the case of `C[C@H]1CCN(C2CCC2)C[C@@H]1C(=O)c1ccc2cc(C#N)ccc2c1` (stereo in doubt) [Example 161a, 6-(1-cyclobutyl-4-methylpiperidine-3-carbonyl)-2-naphthonitrile], the IC50 is reported as 3 µM.

Work on `C[C@@H]1CCN(C2CCC2)C[C@H]1C(=O)c1ccc2cc(C#N)ccc2c1` (stereo in doubt) [Example 161b, 6-(1-cyclobutyl-4-methylpiperidine-3-carbonyl)-2-naphthonitrile] yielded an IC50 of 0.0123 µM.

In the case of `C[C@@H]1CCN(C2CCCC2)C[C@H]1C(=O)c1ccc2cc(C#N)ccc2c1` (stereo in doubt) [Example 162b, 6-(1-cyclopentyl-4-methylpiperidine-3-carbonyl)-2-naphthonitrile], the IC50 is reported as 0.0857 µM.

Molecule `CCCN1CC[C@H](C)[C@@H](C(=O)c2ccc3cc(C#N)ccc3c2)C1` (stereo in doubt) [Example 163a, 6-(4-methyl-1-propylpiperidine-3-carbonyl)-2-naphthonitrile] has an IC50 of 0.993 µM.

`CCCN1CC[C@@H](C)[C@H](C(=O)c2ccc3cc(C#N)ccc3c2)C1` (stereo in doubt) [Example 163b, 6-(4-methyl-1-propylpiperidine-3-carbonyl)-2-naphthonitrile] showed an IC50 of 0.0454 µM.

In the case of `COc1ccc2cc(C(=O)[C@H]3CCCN(C4CCC4)C3)ccc2c1CC#N` (stereo in doubt) [Example 179a, 2-(6-(1-cyclobutylpiperidine-3-carbonyl)-2-methoxynaphthalen-1-yl)acetonitrile], the IC50 is reported as 0.00565 µM.

For `COc1ccc2cc(C(=O)[C@@H]3CCCN(C4CCC4)C3)ccc2c1CC#N` (stereo in doubt) [Example 179b, 2-(6-(1-cyclobutylpiperidine-3-carbonyl)-2-methoxynaphthalen-1-yl)acetonitrile], the IC50 was 0.361 µM.

For `CCCN1CC[C@@H](C)[C@@H](C(=O)c2ccc3c(CC#N)c(OC)ccc3c2)C1` (stereo in doubt) [Example 181a, 2-(2-methoxy-6-(4-methyl-1-propylpiperidine-3-carbonyl)naphthalen-1-yl)acetonitrile], the IC50 was 1.3 µM.

`CCCN1CC[C@H](C)[C@H](C(=O)c2ccc3c(CC#N)c(OC)ccc3c2)C1` (stereo in doubt) [Example 181b, 2-(2-methoxy-6-(4-methyl-1-propylpiperidine-3-carbonyl)naphthalen-1-yl)acetonitrile] showed an IC50 of 0.0123 µM.

Work on `COc1ccc2cc(C(=O)[C@H]3CN(C4CCC4)CC[C@H]3C)ccc2c1CC#N` (stereo in doubt) [Example 182a, 2-(6-(1-cyclobutyl-4-methylpiperidine-3-carbonyl)-2-methoxynaphthalen-1-yl)acetonitrile] yielded an IC50 of 0.29 µM.

`COc1ccc2cc(C(=O)[C@@H]3CN(C4CCC4)CC[C@@H]3C)ccc2c1CC#N` (stereo in doubt) [Example 182b, 2-(6-(1-cyclobutyl-4-methylpiperidine-3-carbonyl)-2-methoxynaphthalen-1-yl)acetonitrile] was tested, and the IC50 was 0.00112 µM.

For `CC[C@@H]1CCN(C2CCC2)C[C@H]1C(=O)c1ccc2c(CC#N)c(OC)ccc2c1` (stereo in doubt) [Example 183a, 2-(6-(1-cyclobutyl-4-ethylpiperidine-3-carbonyl)-2-methoxynaphthalen-1-yl)acetonitrile], the IC50 was 0.0552 µM.

`CC[C@H]1CCN(C2CCC2)C[C@@H]1C(=O)c1ccc2c(CC#N)c(OC)ccc2c1` (stereo in doubt) [Example 183b, 2-(6-(1-cyclobutyl-4-ethylpiperidine-3-carbonyl)-2-methoxynaphthalen-1-yl)acetonitrile] gave an IC50 of 0.00206 µM.

In the case of `CC[C@@H]1CCN(C2CCC2)C[C@@H]1C(=O)c1ccc2c(CC#N)c(OC)ccc2c1` (stereo in doubt) [Example 183c, 2-(6-(1-cyclobutyl-4-ethylpiperidine-3-carbonyl)-2-methoxynaphthalen-1-yl)acetonitrile], the IC50 is reported as 0.078 µM.

`CC[C@H]1CCN(C2CCC2)C[C@H]1C(=O)c1ccc2c(CC#N)c(OC)ccc2c1` (stereo in doubt) [Example 183d, 2-(6-(1-cyclobutyl-4-ethylpiperidine-3-carbonyl)-2-methoxynaphthalen-1-yl)acetonitrile] gave an IC50 of 0.00153 µM.

In the case of `CCC[C@@H]1CCN(C2CCC2)C[C@@H]1C(=O)c1ccc2c(CC#N)c(OC)ccc2c1` (stereo in doubt) [Example 184a, 2-(6-(1-cyclobutyl-4-propylpiperidine-3-carbonyl)-2-methoxynaphthalen-1-yl)acetonitrile], the IC50 is reported as 0.0774 µM.

Work on `CCC[C@H]1CCN(C2CCC2)C[C@H]1C(=O)c1ccc2c(CC#N)c(OC)ccc2c1` (stereo in doubt) [Example 184b, 2-(6-(1-cyclobutyl-4-propylpiperidine-3-carbonyl)-2-methoxynaphthalen-1-yl)acetonitrile] yielded an IC50 of 0.00141 µM.

With `CCC[C@@H]1CCN(C2CCC2)C[C@H]1C(=O)c1ccc2c(CC#N)c(OC)ccc2c1` (stereo in doubt) [Example 184c, 2-(6-(1-cyclobutyl-4-propylpiperidine-3-carbonyl)-2-methoxynaphthalen-1-yl)acetonitrile] the IC50 was 0.00313 µM.

`CCC[C@H]1CCN(C2CCC2)C[C@@H]1C(=O)c1ccc2c(CC#N)c(OC)ccc2c1` (stereo in doubt) [Example 184d, 2-(6-(1-cyclobutyl-4-propylpiperidine-3-carbonyl)-2-methoxynaphthalen-1-yl)acetonitrile] gave an IC50 of 0.263 µM.

Work on `COc1ccc2cc(C(=O)[C@@H]3CN(C4CCC4)CC[C@@H]3CC(C)C)ccc2c1CC#N` (stereo in doubt) [Example 185a, 2-(6-(1-cyclobutyl-4-isobutylpiperidine-3-carbonyl)-2-methoxynaphthalen-1-yl)acetonitrile] yielded an IC50 of 0.0535 µM.

`COc1ccc2cc(C(=O)[C@H]3CN(C4CCC4)CC[C@H]3CC(C)C)ccc2c1CC#N` (stereo in doubt) [Example 185b, 2-(6-(1-cyclobutyl-4-isobutylpiperidine-3-carbonyl)-2-methoxynaphthalen-1-yl)acetonitrile] was tested, and the IC50 was 0.002 µM.

`COc1ccc2cc(C(=O)[C@@H]3CN(C4CCC4)CC[C@@H]3C(C)C)ccc2c1CC#N` (stereo in doubt) [Example 186a, 2-(6-(1-cyclobutyl-4-isopropylpiperidine-3-carbonyl)-2-methoxynaphthalen-1-yl)acetonitrile] was tested, and the IC50 was 0.0701 µM.

In the case of `COc1ccc2cc(C(=O)[C@H]3CN(C4CCC4)CC[C@H]3C(C)C)ccc2c1CC#N` (stereo in doubt) [Example 186b, 2-(6-(1-cyclobutyl-4-isopropylpiperidine-3-carbonyl)-2-methoxynaphthalen-1-yl)acetonitrile], the IC50 is reported as 0.00212 µM.

`O=C(c1cccc(Cl)c1)C1CCCN(C2CCCC2)C1` (stereo not shown) [Example 3, (3-chlorophenyl)-(1-cyclopentyl-3-piperidyl)methanone] showed an IC50 of 23 µM.

In the case of `COc1ccc(C(=O)C2CCCN(C3CCC3)C2)c(OC)c1` (stereo not shown) [Example 5, (1-cyclobutyl-3-piperidyl)-(2,4-dimethoxyphenyl)methanone], the IC50 is reported as 2.5 µM.

`COc1ccc2cc(C(=O)C3CCCN(C4CCOCC4)C3)ccc2c1` (stereo not shown) [Example 6, (6-methoxy-2-naphthyl)-(1-tetrahydropyran-4-yl-3-piperidyl)methanone] was tested, and the IC50 was 2.6 µM.

In the case of `COc1ccc2cc(C(=O)[C@@H]3CCCN(CC4CC4)C3)ccc2c1` [Example 7, [(3R)-1-(cyclopropylmethyl)-3-piperidyl]-(6-methoxy-2-naphthyl)methanone], the IC50 is reported as 0.123 µM.

Work on `COc1ccc2cc(C(=O)[C@H]3CCCN(CC4CC4)C3)ccc2c1` [Example 8, [(3S)-1-(cyclopropylmethyl)-3-piperidyl]-(6-methoxy-2-naphthyl)methanone] yielded an IC50 of 2.7 µM.

For `COc1ccc2cc(C(=O)[C@@H]3CCCN(C4CCCC4)C3)ccc2c1` [Example 9, [(3R)-1-cyclopentyl-3-piperidyl]-(6-methoxy-2-naphthyl)methanone], the IC50 was 3 µM.

In the case of `COc1ccc2cc(C(=O)[C@H]3CCCN(C4CCCC4)C3)ccc2c1` [Example 10, [(3S)-1-cyclopentyl-3-piperidyl]-(6-methoxy-2-naphthyl)methanone], the IC50 is reported as 0.0566 µM.

Work on `COc1ccc(C(=O)[C@H]2CCCN(C3CCC3)C2)c(OC)c1` [Example 11, [(3S)-1-cyclobutyl-3-piperidyl]-(2,4-dimethoxyphenyl)methanone] yielded an IC50 of 0.153 µM.

With `COc1ccc(C(=O)[C@@H]2CCCN(C3CCC3)C2)c(OC)c1` [Example 12, [(3R)-1-cyclobutyl-3-piperidyl]-(2,4-dimethoxyphenyl)methanone] the IC50 was 9 µM.

`COc1ccc2cc(C(=O)C3CCCN(C4COC4)C3)ccc2c1` (stereo not shown) [Example 14, (6-methoxy-2-naphthyl)-[1-(oxetan-3-yl)-3-piperidyl]methanone] gave an IC50 of 1.2 µM.

With `COc1ccc2cc(C(=O)C3CCCN(C4CCOC4)C3)ccc2c1` (stereo not shown) [Example 15, (6-methoxy-2-naphthyl)-(1-tetrahydrofuran-3-yl-3-piperidyl)methanone] the IC50 was 0.43 µM.
